One assay concerns lymphocytes. Nature of the assay: mixed lymphocyte reaction (MLR), human lymphocytes (FIG. 12). The class given is cell-based. On the procedure: This example illustrates an inhibitive effect of compound no. 1206 in a mixed lymphocyte reaction (MLR). This MNR is used to screen potentially immunosuppressive drugs. Lymphocytes (2×10^5) from normal human donors are grown for 6 days in the presence and absence (control) of inventive compound no. 1206. Tritiated thymidine is added and the lymphocytes grown for a final 6 hours. Incorporation of the tritiated thymidine occurs when the cells are in cell cycle. […] An experimentally determined IC50 value for compound no. 1206 is 70 μM.

For a further assay, the system named is cerebral blood flow. Conditions: in vivo; cited from earlier work.
The subject of assay [1] is polymorphonuclear leukocytes. Conditions: cited from earlier work; for chemotaxis in polymorphonuclear leukocytes: in response to a stimulator of chemotaxis.
Assay [2] relates to PAPH (phosphatidic acid phosphohydrolase). In words: blocking of PAPH in a specific activation pathway. The assay is classed as cell-based. The note with it: pathway not involving PI; human mesangial cells, TNF. The text has this: The compounds of the invention, include inhibitors of subspecies of LPAAT in PAPH enzymes with substrate specificity for intermediates with 1,2-diunsaturated and 1-alkyl, 2-unsaturated subspecies. One representative example of such an inhibitor (although not within the genus of inventive compounds) is PTX. […] It should be emphasized that the compounds of the invention affect that subset of PAPH and LPAAT that relates to substrates with unsaturated fatty acids other than arachidonate in the sn-2 position, not the housekeeping forms of these enzymes that serve the PI pathway.

The test system of assay [3] is tumor necrosis factor (TNF) levels. The note with it: cited from earlier work.

Where two headings read alike, the source gives them in different places.

In the case of `Cn1c(=O)c2ccccc2n(CCCCC2CO2)c1=O` (centres unmarked) [Compound 1206, 1-(5,6-Oxidohexyl)-3-methylbenzoyleneurea], the IC50 in the assay with lymphocytes amounted to 70 µM.

For the compound `CC(O)CCCCn1c(=O)c2c(ncn2C)n(C)c1=O` (centres unmarked) [Compound M1, 1-(5-hydroxyhexyl)-3,7-dimethylxanthine], in the assay on cerebral blood flow, the cerebral blood flow result is reported as “increasing cerebral blood flow”. In addition, in assay [1], the “chemotaxis in polymorphonuclear leukocytes” value is on record as “stimulate chemotaxis in polymorphonuclear leukocytes”.

With `CC(=O)CCCCn1c(=O)c2c(ncn2C)n(C)c1=O` [PTX, 1-(5-oxohexyl)-3,7-dimethylxanthine], the “activity of certain cytokines to affect chemotaxis” value in assay [1] is “inhibit activity of certain cytokines to affect chemotaxis”. Also, in assay [1], the “chemotaxis in polymorphonuclear leukocytes” value was “stimulate chemotaxis in polymorphonuclear leukocytes”. Besides, the “blocking of PAPH” value in assay [2] is reported as “blocks PAPH in a specific activation pathway”. The TNF levels result was “TNF levels were higher among PTX recipients” in assay [3] (normal volunteers) and “decrease tumor necrosis factor (TNF) levels” in assay [3] (with GM-CSF, patients undergoing allogeneic bone marrow transplant).

The IC50 is the point on the concentration scale where inhibition reaches its midpoint.

(Values after patent US5866576A, “Epoxide-containing compounds” (Cell Therapeutics, Inc., priority 1997, dated 1999).)
